Results published in patent US10273226B2, “Pyrazolyl-heteroarylamides as pesticides” (Bayer Animal Health GmbH, priority 2014, dated 2019).

Experiments:
Assay type in all cases: in vivo
Rhipicephalus sanguineus = Rhipicephalus sanguineus in vitro contact test with adult brown dog ticks; details: application rate 5 μg/cm^2 (500 g/ha); after 48 h; ticks dead or moribund
Method in brief: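 Test tubes (25 ml) were coated by dissolving active ingredient in acetone p.a., diluting to the required concentration, and spreading 250 μl over the inner walls and base on an orbital shaker at 30 rpm for 2 h. Once dry, 5-10 adult Rhipicephalus sanguineus were added, and tubes were capped with perforated lids and kept horizontal in darkness at room temperature. At 48 h, ticks were knocked down and heated at 45-50° C. for up to 5 min. Those unable to climb away were counted dead or moribund, and efficacy ran from 0% to 100%.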

Tetranychus urticae = Tetranychus urticae spray test, OP-resistant; details: application rate 100 g/ha; after 6 days
Method in brief: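 Bean leaf discs (Phaseolus vulgaris) carrying all stages of OP-resistant mites are sprayed with compound formulated in solvent and emulsifier-containing water. Efficacy (% mites killed) is scored after 6 days.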

[1] = tested on: Anopheles gambiae strain RSPH (homozygot kdr); assay: Anopheles test (ANPHGB surface treatment); details: application rate 100 mg/m^2, exposure 30 minutes, 24 hours after contact, read-out: efficacy (mortality in %)
Description: Anopheles Test (ANPHGB Surface Treatment)
(§1) Solvent: acetone+2000 ppm rapeseed oil methyl ester (RME)
(§2) To produce an appropriate active ingredient formulation, the active ingredient is dissolved in the solvent (2 mg/ml). The active ingredient formulation is pipetted onto a glazed tile and, after it has dried off, adult mosquitoes of the species Anopheles gambiae strain RSPH (homozygot kdr) are placed onto the treated tile. The exposure time is 30 minutes.
(§3) 24 hours after contact with the treated surface, mortality in % is determined. 100% means that all the mosquitoes have been killed; 0% means that none of the mosquitoes have been killed.

[2] = tested on: Anopheles funestus strain FUMOZ-R; assay: Anopheles test (ANPHFU surface treatment); details: 24 hours after contact, read-out: efficacy (mortality in %)
Description: Anopheles Test (ANPHFU Surface Treatment)
as §1
as §2, with “funestus” for “gambiae”, “FUMOZ-R (Hunt et al., Med Vet Entomol. 2005 September; 19 (3):271-5)” for “RSPH (homozygot kdr)”
as §3

Cn1nc(C(F)(F)C(F)(F)F)c(C(F)(F)F)c1-n1cc(-c2cccc(NC(=O)c3ccncc3)c2)cn1 [Example 1-001, N-{3-[2′-Methyl-5′-(pentafluoroethyl)-4′-(trifluoromethyl)-2′H-1,3′-bipyrazol-4-yl]-phenyl}isonicotinamide]
efficacy (Rhipicephalus sanguineus): 100% | efficacy (Tetranychus urticae): 100% | mortality at 100 mg/m2 [1]: 90 to 100% | mortality at 20 mg/m2 ([2]; application rate 20 mg/m^2, exposure 30 minutes): 90 to 100% | mortality at 100 mg/m2 ([2]; application rate 100 mg/m^2, exposure 30 minutes): 90 to 100%
